The record followed here is PMC5218480 (PLoS ONE, 2017).

The assay concerns MV-4-11 cells. The experiment in a line: Gene expression microarray analysis (Affymetrix PrimeView) and GSEA. It counts as cell-based, human. Also on record: RFU PODN (11730768_x_at) / Fold change /veh PODN (11730768_x_at) / RFU LINC00158 (11744669_a_at) / Fold change /veh LINC00158 (11744669_a_at) / RFU DUSP10 (11751237_a_at) / Fold change /veh DUSP10 (11751237_a_at) / RFU ID3 (11757404_x_at) / Fold change /veh ID3 (11757404_x_at) / RFU PLEKHG5 (11737974_s_at) / Fold change /veh PLEKHG5 (11737974_s_at) / RFU LRRC4B (11730491_at) / Fold change /veh LRRC4B (11730491_at) / RFU GIMAP4 (11747438_a_at) / Fold change /veh GIMAP4 (11747438_a_at) / RFU KRT8 (11758183_x_at) / Fold change /veh KRT8 (11758183_x_at) / RFU CNN1 (11734310_a_at) / Fold change /veh CNN1 (11734310_a_at) / RFU VPS37D (11726825_at) / Fold change /veh VPS37D (11726825_at) / RFU C10orf10 (11716522_x_at) / Fold change /veh C10orf10 (11716522_x_at) / RFU KIR2DL2 /// KIR2DL4 /// KIR2DL5A /// KIR2DL5B /// KIR2DS1 /// KIR2DS2 /// KIR2DS3 /// KIR2DS4 /// KIR3DL3 /// KIR3DL3 /// KIR3DS1 (11738374_at) / Fold change /veh KIR2DL2 /// KIR2DL4 /// KIR2DL5A /// KIR2DL5B /// KIR2DS1 /// KIR2DS2 /// KIR2DS3 /// KIR2DS4 /// KIR3DL3 /// KIR3DL3 /// KIR3DS1 (11738374_at) / RFU C1QL1 (11718748_at) / Fold change /veh C1QL1 (11718748_at) / RFU TMPRSS4 (11747572_a_at) / Fold change /veh TMPRSS4 (11747572_a_at) / RFU HAMP (11756126_x_at) / Fold change /veh HAMP (11756126_x_at) / RFU RNFT2 (11725882_a_at) / Fold change /veh RNFT2 (11725882_a_at) / RFU NR4A2 (11747474_a_at) / Fold change /veh NR4A2 (11747474_a_at) / RFU ABCC12 (11746883_a_at) / Fold change /veh ABCC12 (11746883_a_at) / RFU TMEM136 (11760407_x_at) / Fold change /veh TMEM136 (11760407_x_at) / RFU CLDN22 /// WWC2 (11732394_at) / Fold change /veh CLDN22 /// WWC2 (11732394_at) / RFU HLA-DPB1 (11760878_x_at) / Fold change /veh HLA-DPB1 (11760878_x_at) / RFU SPINT1 (11716480_a_at) / Fold change /veh SPINT1 (11716480_a_at) / RFU GAP43 (11754022_s_at) / Fold change /veh GAP43 (11754022_s_at) / RFU A4GNT (11735810_at) / Fold change /veh A4GNT (11735810_at) / RFU PRB3 (11715151_x_at) / Fold change /veh PRB3 (11715151_x_at) / RFU TUBB4B (11761932_at) / Fold change /veh TUBB4B (11761932_at) / RFU CAPN14 (11732068_a_at) / Fold change /veh CAPN14 (11732068_a_at) / RFU TMCC2 (11721928_a_at) / Fold change /veh TMCC2 (11721928_a_at) / RFU IRGQ (11745062_a_at) / Fold change /veh IRGQ (11745062_a_at) / RFU FAM174B (11720279_a_at) / Fold change /veh FAM174B (11720279_a_at) / RFU TMPRSS4 (11748680_a_at) / Fold change /veh TMPRSS4 (11748680_a_at) / RFU FAM212B (11763350_a_at) / Fold change /veh FAM212B (11763350_a_at) / RFU PLEKHG5 (11743358_a_at) / Fold change /veh PLEKHG5 (11743358_a_at) / RFU ZSCAN30 (11745921_a_at) / Fold change /veh ZSCAN30 (11745921_a_at) / RFU CMKLR1 (11741424_a_at) / Fold change /veh CMKLR1 (11741424_a_at) / RFU LOC101060620 /// MAPK8IP1 (11723275_at) / Fold change /veh LOC101060620 /// MAPK8IP1 (11723275_at) / RFU SPTSSB (11747773_x_at) / Fold change /veh SPTSSB (11747773_x_at) / RFU PRSS12 (11739890_at) / Fold change /veh PRSS12 (11739890_at) / RFU BIN1 (11741810_x_at) / Fold change /veh BIN1 (11741810_x_at) / RFU WNT11 (11732464_a_at) / Fold change /veh WNT11 (11732464_a_at) / RFU C10orf10 (11716521_a_at) / Fold change /veh C10orf10 (11716521_a_at) / RFU C5orf56 (11738089_at) / Fold change /veh C5orf56 (11738089_at) / RFU CYB561 (11721691_x_at) / Fold change /veh CYB561 (11721691_x_at) / RFU ANKRD19P (11752326_a_at) / Fold change /veh ANKRD19P (11752326_a_at) / RFU OR2T12 /// OR2T33 /// OR2T8 (11738714_s_at) / Fold change /veh OR2T12 /// OR2T33 /// OR2T8 (11738714_s_at) / RFU VCAN (11748164_a_at) / Fold change /veh VCAN (11748164_a_at) / RFU JSRP1 (11732532_at) / Fold change /veh JSRP1 (11732532_at) / RFU KRTAP10-11 (11738290_x_at) / Fold change /veh KRTAP10-11 (11738290_x_at) / RFU MYO3A (11730013_a_at) / Fold change /veh MYO3A (11730013_a_at) / RFU EBF3 (11725865_a_at) / Fold change /veh EBF3 (11725865_a_at) / RFU CAMK2N1 (11719241_x_at) / Fold change /veh CAMK2N1 (11719241_x_at) / RFU C5orf56 (11738088_a_at) / Fold change /veh C5orf56 (11738088_a_at) / RFU OLFML3 (11715873_a_at) / Fold change /veh OLFML3 (11715873_a_at) / RFU LOC100653217 /// NTM (11731650_a_at) / Fold change /veh LOC100653217 /// NTM (11731650_a_at) / RFU MAPK11 (11762145_a_at) / Fold change /veh MAPK11 (11762145_a_at) / RFU FIZ1 (11724087_x_at) / Fold change /veh FIZ1 (11724087_x_at) / RFU OASL (11726364_x_at) / Fold change /veh OASL (11726364_x_at) / RFU SOX15 (11748057_x_at) / Fold change /veh SOX15 (11748057_x_at) / RFU CD79A (11719716_a_at) / Fold change /veh CD79A (11719716_a_at) / RFU HIST1H1D (11736915_at) / Fold change /veh HIST1H1D (11736915_at) / RFU CASKIN2 (11723855_a_at) / Fold change /veh CASKIN2 (11723855_a_at) / RFU LOC730098 (11760151_x_at) / Fold change /veh LOC730098 (11760151_x_at) / RFU OR4N2 (11742367_at) / Fold change /veh OR4N2 (11742367_at) / RFU PRRT2 (11749266_a_at) / Fold change /veh PRRT2 (11749266_a_at) / RFU SNX32 (11753110_a_at) / Fold change /veh SNX32 (11753110_a_at) / RFU CDHR5 (11726645_a_at) / Fold change /veh CDHR5 (11726645_a_at) / RFU RCAN1 (11760418_a_at) / Fold change /veh RCAN1 (11760418_a_at) / RFU FAM167A (11723789_a_at) / Fold change /veh FAM167A (11723789_a_at) / RFU FAM26E (11764081_at) / Fold change /veh FAM26E (11764081_at) / RFU ISYNA1 (11749810_s_at) / Fold change /veh ISYNA1 (11749810_s_at) / RFU ACY1 (11761880_at) / Fold change /veh ACY1 (11761880_at) / RFU 11764098_at / Fold change /veh 11764098_at / RFU SAMD14 (11745864_x_at) / Fold change /veh SAMD14 (11745864_x_at) / RFU NPB (11741838_a_at) / Fold change /veh NPB (11741838_a_at) / RFU TMPRSS6 (11731388_a_at) / Fold change /veh TMPRSS6 (11731388_a_at) / RFU KRTAP10-2 (11738614_at) / Fold change /veh KRTAP10-2 (11738614_at) / RFU ARHGAP8 /// PRR5-ARHGAP8 (11727945_x_at) / Fold change /veh ARHGAP8 /// PRR5-ARHGAP8 (11727945_x_at) / RFU KRTAP5-7 /// NADSYN1 (11734609_at) / Fold change /veh KRTAP5-7 /// NADSYN1 (11734609_at) / RFU RASL12 (11751679_a_at) / Fold change /veh RASL12 (11751679_a_at) / RFU CDKN2B (11736163_a_at) / Fold change /veh CDKN2B (11736163_a_at) / RFU PRF1 (11729649_at) / Fold change /veh PRF1 (11729649_at) / RFU, ZNF638 /// ZNF638-IT1 / Fold change vs veh, ZNF638 /// ZNF638-IT1 / RFU, PANK3 / Fold change vs veh, PANK3 / RFU, SH3YL1 / Fold change vs veh, SH3YL1 / RFU, ZEB2 / Fold change vs veh, ZEB2 / RFU, NRIP1 / Fold change vs veh, NRIP1 / RFU, PTTG1IP / Fold change vs veh, PTTG1IP / RFU, CAPN2 / Fold change vs veh, CAPN2 / RFU, MED14 / Fold change vs veh, MED14 / RFU, SNORA58 / Fold change vs veh, SNORA58 / RFU, C1orf63 / Fold change vs veh, C1orf63 / RFU, LRRFIP1 / Fold change vs veh, LRRFIP1 / RFU, NDUFAF7 / Fold change vs veh, NDUFAF7 / RFU, SLC12A2 / Fold change vs veh, SLC12A2 / RFU, IBTK / Fold change vs veh, IBTK / RFU, ESF1 / Fold change vs veh, ESF1 / Fold change vs veh, TMEM50B / RFU, TAOK1 / Fold change vs veh, TAOK1 / RFU, ACBD3 / Fold change vs veh, ACBD3 / RFU, TMA16 / Fold change vs veh, TMA16 / RFU, RWDD3 / Fold change vs veh, RWDD3 / RFU, BCAT1 / Fold change vs veh, BCAT1 / RFU, EDEM3 / Fold change vs veh, EDEM3 / RFU, TMEM33 / Fold change vs veh, TMEM33 / RFU, WDR75 / Fold change vs veh, WDR75 / RFU, AHCTF1 / Fold change vs veh, AHCTF1 / RFU, TFRC / Fold change vs veh, TFRC / RFU, ZDHHC17 / Fold change vs veh, ZDHHC17 / RFU, NOM1 / Fold change vs veh, NOM1 / RFU, ARL8B / Fold change vs veh, ARL8B / RFU, ZBTB11 / Fold change vs veh, ZBTB11 / RFU, TAMM41 / Fold change vs veh, TAMM41 / RFU, KIAA1704 /// LOC100996395 / Fold change vs veh, KIAA1704 /// LOC100996395 / RFU, ING1 / Fold change vs veh, ING1 / RFU, TRMT61B / Fold change vs veh, TRMT61B / RFU, FUBP3 / Fold change vs veh, FUBP3 / RFU, TP53 / Fold change vs veh, TP53 / RFU, TNKS2 / Fold change vs veh, TNKS2 / RFU, ZFP14 / Fold change vs veh, ZFP14 / RFU, ACTR2 / Fold change vs veh, ACTR2 / RFU, PPP3R1 / Fold change vs veh, PPP3R1 / RFU, PIK3R1 / Fold change vs veh, PIK3R1 / RFU, HNRNPA1 / Fold change vs veh, HNRNPA1 / RFU, RNF170 / Fold change vs veh, RNF170 / RFU, ZNF28 / Fold change vs veh, ZNF28 / RFU, RNGTT / Fold change vs veh, RNGTT / RFU, OGT / Fold change vs veh, OGT / RFU, BRD1 / Fold change vs veh, BRD1 / RFU, MARS / Fold change vs veh, MARS / RFU, ZNF655 / Fold change vs veh, ZNF655 / RFU, FAHD1 / Fold change vs veh, FAHD1 / RFU, BDP1 / Fold change vs veh, BDP1 / RFU, LRRCC1 / Fold change vs veh, LRRCC1 / RFU, ARID1A / Fold change vs veh, ARID1A / RFU, ZNF146 / Fold change vs veh, ZNF146 / RFU, ZNF330 / Fold change vs veh, ZNF330 / RFU, GPN3 / Fold change vs veh, GPN3 / RFU, C9orf123 / Fold change vs veh, C9orf123 / RFU, N4BP2L2 / Fold change vs veh, N4BP2L2 / RFU, ARFIP1 / Fold change vs veh, ARFIP1 / RFU, FAM179B / Fold change vs veh, FAM179B / RFU, BCL10 / Fold change vs veh, BCL10 / RFU, UHRF1BP1L / Fold change vs veh, UHRF1BP1L / RFU, BET1 / Fold change vs veh, BET1 / RFU, CNOT2 / Fold change vs veh, CNOT2 / RFU, ZNF268 / Fold change vs veh, ZNF268 / Fold change vs veh, ZNF507 / RFU, DGCR2 / Fold change vs veh, DGCR2 / RFU, WDSUB1 / Fold change vs veh, WDSUB1 / Fold change vs veh, HSP90B1 /// MIR3652 / RFU, ADSS / Fold change vs veh, ADSS / RFU, GK / Fold change vs veh, GK / RFU, ZNF148 / Fold change vs veh, ZNF148 / RFU, TAF9 / Fold change vs veh, TAF9 / RFU, SLC1A5 / Fold change vs veh, SLC1A5 / RFU, SLMO2 / Fold change vs veh, SLMO2 / RFU, ABCC4 / Fold change vs veh, ABCC4 / RFU, LOC101060439 /// RAP1B / Fold change vs veh, LOC101060439 /// RAP1B / RFU, RFX7 / Fold change vs veh, RFX7 / RFU, GTPBP10 / Fold change vs veh, GTPBP10 / RFU, CNEP1R1 / Fold change vs veh, CNEP1R1 / RFU, BIVM-ERCC5 /// ERCC5 / Fold change vs veh, BIVM-ERCC5 /// ERCC5 / RFU, ILF3 / Fold change vs veh, ILF3 / RFU 11762660_at / Fold change /veh 11762660_at / RFU VCAN (11757783_s_at) / Fold change /veh VCAN (11757783_s_at) / RFU DDX43 (11728927_at) / Fold change /veh DDX43 (11728927_at) / RFU KRT8 (11758188_x_at) / Fold change /veh KRT8 (11758188_x_at) / RFU NKD1 (11759106_at) / Fold change /veh NKD1 (11759106_at) / RFU SRD5A1 (11742802_a_at) / Fold change /veh SRD5A1 (11742802_a_at) / RFU TPSAB1 /// TPSB2 (11721975_s_at) / Fold change /veh TPSAB1 /// TPSB2 (11721975_s_at) / RFU GSTM3 (11746129_a_at) / Fold change /veh GSTM3 (11746129_a_at) / RFU IL23R (11737362_x_at) / Fold change /veh IL23R (11737362_x_at) / RFU TMEM51 (11727254_a_at) / Fold change /veh TMEM51 (11727254_a_at) / RFU PIWIL2 (11732686_x_at) / Fold change /veh PIWIL2 (11732686_x_at) / RFU ORM1 (11744905_x_at) / Fold change /veh ORM1 (11744905_x_at) / RFU CCDC152 (11743942_at) / Fold change /veh CCDC152 (11743942_at) / RFU ECM1 (11717891_a_at) / Fold change /veh ECM1 (11717891_a_at) / RFU IL23R (11748794_a_at) / Fold change /veh IL23R (11748794_a_at) / RFU TNFAIP8L3 (11732012_x_at) / Fold change /veh TNFAIP8L3 (11732012_x_at) / RFU MBOAT4 (11741988_at) / Fold change /veh MBOAT4 (11741988_at) / RFU 11764193_at / Fold change /veh 11764193_at / RFU TMEM53 (11763286_at) / Fold change /veh TMEM53 (11763286_at) / RFU MAGEB2 (11727129_at) / Fold change /veh MAGEB2 (11727129_at) / RFU TMEM200A (11744735_a_at) / Fold change /veh TMEM200A (11744735_a_at) / RFU CCDC152 (11751479_a_at) / Fold change /veh CCDC152 (11751479_a_at) / RFU FAM211A (11726209_a_at) / Fold change /veh FAM211A (11726209_a_at) / RFU RGS16 (11746705_a_at) / Fold change /veh RGS16 (11746705_a_at) / RFU VCAN (11755009_s_at) / Fold change /veh VCAN (11755009_s_at) / RFU RHOB (11743442_s_at) / Fold change /veh RHOB (11743442_s_at) / RFU RGS16 (11720943_a_at) / Fold change /veh RGS16 (11720943_a_at) / RFU RGS16 (11720944_at) / Fold change /veh RGS16 (11720944_at) / RFU, VPS4B / Fold change vs veh, VPS4B / RFU, CREB1 / Fold change vs veh, CREB1 / RFU, DNAJC13 / Fold change vs veh, DNAJC13 / RFU, GNAQ / Fold change vs veh, GNAQ / RFU, CDK5R1 / Fold change vs veh, CDK5R1 / RFU, ZRANB3 / Fold change vs veh, ZRANB3 / RFU, CUL4A / Fold change vs veh, CUL4A / RFU, CCNY / Fold change vs veh, CCNY / RFU, UFL1 / Fold change vs veh, UFL1 / RFU, COG3 / Fold change vs veh, COG3 / RFU, DIAPH2 / Fold change vs veh, DIAPH2 / RFU, SKA2 / Fold change vs veh, SKA2 / RFU, AFF3 / Fold change vs veh, AFF3 / RFU, LMF1 / Fold change vs veh, LMF1 / RFU, IPO11 / Fold change vs veh, IPO11 / RFU, DFFB / Fold change vs veh, DFFB / RFU, FOXP1 / Fold change vs veh, FOXP1 / RFU, CARD8 / Fold change vs veh, CARD8 / RFU, STRN3 / Fold change vs veh, STRN3 / RFU, ADK / Fold change vs veh, ADK / RFU, RASSF2 / Fold change vs veh, RASSF2 / RFU, WIPF1 / Fold change vs veh, WIPF1 / RFU, LARP1B / Fold change vs veh, LARP1B / RFU, RASA1 / Fold change vs veh, RASA1 / RFU, RB1 / Fold change vs veh, RB1 / RFU, PPFIA1 / Fold change vs veh, PPFIA1 / RFU, MAT2A / Fold change vs veh, MAT2A / RFU, CCT5 / Fold change vs veh, CCT5 / RFU, WDR92 / Fold change vs veh, WDR92 / RFU, CUX1 / Fold change vs veh, CUX1 / RFU, TTC7A / Fold change vs veh, TTC7A / RFU, TMEM135 / Fold change vs veh, TMEM135 / RFU, DEPTOR / Fold change vs veh, DEPTOR / RFU, CPM / Fold change vs veh, CPM / RFU, DNAJB6 / Fold change vs veh, DNAJB6 / RFU, CACNA2D3 / Fold change vs veh, CACNA2D3 / RFU, DTX4 / Fold change vs veh, DTX4 / RFU, TFCP2 / Fold change vs veh, TFCP2 / RFU, GMCL1 /// GMCL1P1 / Fold change vs veh, GMCL1 /// GMCL1P1 / RFU, AEBP2 / Fold change vs veh, AEBP2 / RFU, SNHG1 /// SNORD22 /// SNORD25 /// SNORD26 /// SNORD27 /// SNORD28 /// SNORD29 /// SNORD31 / Fold change vs veh, SNHG1 /// SNORD22 /// SNORD25 /// SNORD26 /// SNORD27 /// SNORD28 /// SNORD29 /// SNORD31 / Fold change (Aza/veh), C12orf56 (ProbeSet 11735607_a_at) / Fold change (ACY-1035/veh), C12orf56 (ProbeSet 11735607_a_at) / Fold change (Aza/veh), FGFR1OP (ProbeSet 11751329_s_at) / Fold change (ACY-1035/veh), FGFR1OP (ProbeSet 11751329_s_at) / Fold change (Aza/veh), VPS36 (ProbeSet 11739960_a_at) / Fold change (ACY-1035/veh), VPS36 (ProbeSet 11739960_a_at) / RFU SYPL1 (11715823_x_at) / Fold change /veh SYPL1 (11715823_x_at) / RFU IGFBP7 (11715501_s_at) / Fold change /veh IGFBP7 (11715501_s_at) / RFU REEP3 (11722064_at) / Fold change /veh REEP3 (11722064_at) / RFU IGLL1 (11728026_x_at) / Fold change /veh IGLL1 (11728026_x_at): dose or concentration left out as unconfirmed. The settings on record: ProbeSet 11731610_x_at; LIST B.

With `Nc1ncn([C@@H]2O[C@H](CO)[C@@H](O)[C@H]2O)c(=O)n1` [azacitidine], the “RFU, KIAA1704 /// LOC100996395” value is 92.56 RFU.
